What was measured:
[1] = Stability of linker-modified sfGFP in buffer comprising GSH (thiol exchange, mass spectrometry); type: physicochemical; settings: 37° C., different times
Procedure: GSH (0.8 μL, 100 mM) and PBS (20 μL, pH=8.0, 50 mM) were added to a solution of GFP-Linker (20 μL, 40 μM, in PBS) at 37° C. for 48 h. (FIG. 20)
The stability of a sfGFP modified PhESF as a linker was verified, using the linker 5 and 4 with higher reactivity as controls. After sfGFP had been modified, it was added to the buffer comprising GSH, and was placed at 37° C. for different time, and a mass spectrometry was performed.

sfGFP-TEV = test: Modification of sfGFP-TEV by derivatives of the reagent 1; settings: 2 h
Procedure: When the benzene ring of the Reagent 1 was modified with different substituents (Michael acceptor 1-1 to 1-4), the difference of different substituents on the addition reaction (for example, the addition activity) was investigated (Table 5). Michael acceptor 1-1 to 1-4 were reacted with sfGFP-TEV.
MA 2 or MA 2 analogues (i.e. Compounds 1a, 1a-1, 1b, 1b-1) (1 μL, 20 mM in DMSO) and PBS (15 μL, pH=7.4, 50 mM) were added to a solution of GFP-TEV (4 μL, 250 μM in HEPES buffer). After incubation at 37° C. for 2 h, the solution was desalted to give the product before LC-MS analysis.

| Compound | thiol exchange [1] | Addition number (sfGFP-TEV) | Conv. (%) (sfGFP-TEV) |
| --- | --- | --- | --- |
| CN1C(=O)C=CC1=O [linker 5, reference compound] | obviously undergo thiol exchange | – | – |
| O=S(=O)(F)/C=C/c1ccccc1 [Michael acceptor 1] | did not have a thiol exchange | 2 | >99 |

Source: patent US20240261425A1, “CONJUGATE AND THE PREPARING METHOD AND USE THEREOF” (Nanjing University, priority 2021, published 2024)
